Data set [1] has as its target LRRK2 G2019S (Homo sapiens (Human), UniProt Q5S007, G2019S). Description: Inhibition of LRRK2 G2019S (Adapta kinase assay). The class given is biochemical. As to conditions: Adapta method, 60 min kinase reaction. The method, then:
(§1) The compounds were evaluated in LRRK2 and in the mutated form LRRK2 G2019S. This mutation is more frequent in the familial forms of Parkinson's Disease and has a significant increase in kinase activity. The experimental determination of the inhibition of both enzymes was carried out using the Adapta® method, which is an evaluation method of fluorescent kinase activity that determines ADP in a highly sensitive manner. The methodology can be divided into two stages: kinase reaction and ADP determination. In the first stage, all the components for the kinase reaction are added to the well and incubated for 60 min. After the reaction, the ADP detection solution which contains a Europium-labeled anti-ADP antibody (Alexa Fluor® 647 labeled ADP tracer) and EDTA, to stop the kinase reaction, are added to the reaction well. The ADP formed in the kinase reaction without inhibitor will displace the Alexa Fluor® 647 labeled ADP tracer of the antibody, resulting in the TR-FRET signal decrease.
(§2) The assay is performed in 384-well plates. Adding 100 nL of the solution with the compound to be evaluated in 1% DMSO, 2.4 μL of HEPES solution, 2.5 μL of ATP solution, […] of substrate solution. The 10 μl of the kinase reaction contain: […] LRRK2 and 200 μM ERM (LRRKtide) in 25 mM Tris/7.5 mM HEPES pH 8.2, 0.005% BRIJ-35, 5 mM MgCl2, 0.5 mM EGTA, 0.01% NaN3 or 3-12 ng LRRK2 G2019S and 200 μM ERM (LRRKtide) in 25 mM Tris/7.5 mM HEPES pH 8.2, 0.005% BRIJ-35, 5 mM MgCl2, 0.5 mM EGTA, 0.01% NaN3. The plate is stirred for 30 s on a stirring plate and centrifuged for 1 min in a centrifuge at 1,000×g. The reaction is incubated at room temperature for 60 min. After this time period, 5 μL of the detection mixture is added, the plate is stirred for 30 s on a stirring plate and centrifuged for 1 min at 1,000×g. Fluorescence is determined in a plate reader and the data are analysed.

A short description of data set [2]: in vitro. As to conditions: PAMPA; for Pe (10−6 cm s−1) / Papp at 2.5 h: pig, pH 7.4; for Pe (10−6 cm s−1): 2.5 h. The text has this: The above-referenced commercial compounds, phosphate buffer at pH=7.4 (PBS), Ethanol and dodecane were obtained from the commercial houses Sigma, Acros organics, Merck, Aldrich and Fluka, respectively. […] To filter the samples, PVDF membrane filters were used (30 mm diameter, 0.45 μm pore size) from the company Symta. The equipment used to measure UV absorbance in 96-well plates was a Thermoscientific Multiskan spectrum.
Ten reference compounds were selected, whose blood-brain barrier passage is known, in order to validate the experiment. […] The solutions were filtered. Next, 180 μL of a PBS/EtOH (70/30) solution were added to each well of the acceptor plate. The donor plate was impregnated with 4 μL of a pig brain lipid solution dissolved in dodecane (20 mg mL^−1). After 5 minutes, 180 μL of solution of each compound were added on this plate. Of the compounds whose penetration in the central nervous system is being evaluated, between 1-2 mg were taken and dissolved in 1,500 μL of EtOH and 3,500 μL of PBS phosphate buffer (pH=7.4), filtered and added to the 96-well donor plate. Next, the donor plate was placed on top of the acceptor plate forming a kind of “sandwich” and left to incubate for 2 h and 30 min at 25° C. The passive transport compounds pass from the donor plate through the pig brain lipid to the acceptor plate. After 2 h and 30 min, the donor plate is carefully removed. The concentration and absorbance of both the commercial compounds and the synthesised derivatives that were evaluated in the acceptor and donor plates were determined using a UV absorbance reader. Each sample was analysed at 2 to 5 wavelengths, in at least three wells and in two independent experiments. […] Ten reference commercial compounds whose penetration in the central nervous system is known were used in each experiment in order to validate the method.
A general note: In PAMPA a lipid-coated filter parts donor from acceptor wells.

Data set [3] concerns human neuronal line SH-SY5Y. In words: Neuroprotection against okadaic acid-induced tau hyperphosphorylation (MTT). The class given is cell-based. As to conditions: compounds 1, 5 and 10 μM pre-incubated 1 hour, OA 30 nM 24 hours. The method, then:
The neuroprotective potential of the compounds was evaluated in an okadaic acid (OA)-induced neurodegeneration cell model. OA is an inhibitor of phosphatase 1 and 2 and is normally used to induce tau hyperphosphorylation in different cell lines. In this case, the human neuronal line SH-SY5Y is used. The cells are cultured in DMEM medium supplemented with 10% FBS and 1% penicillin/streptomycin at 37° C. and in an incubator with 5% CO2. The SH-SY5Y cells are sown on a 96-well plate at a density of 60,000 cells per well for 48 hours. After this time period, the cells are pre-incubated with the compounds to be studied at a concentration of 1, 5 and 10 μM for 1 hour. After that time period, OA is added at a concentration of 30 nM, letting the plate incubate for a further 24 hours. Next, the cells were incubated with an MTT solution at 0.5 mg·mL^−1 for at least 4 hours at 37° C. and 5% CO2. Next, the culture medium is removed and the formazan crystals joined to the base of the plate are dissolved with 200 μL of DMSO. Lastly, UV absorbance was measured at 595 nm in a plate reader (Varioskan Flash Microplate reader, Thermo Scientific).

For data set [4], the target named is LRRK2 (Homo sapiens (Human), UniProt Q5S007). In words: Inhibition of LRRK2 (Adapta kinase assay). As to conditions: Adapta method, 60 min kinase reaction. The class given is biochemical. As for the experimental part:
as §1, §2

The source of these data is patent US11912678B2, “LRRK2 inhibiting compounds and use thereof for treating neurodegenerative diseases” (CONSEJO SUPERIOR DE INVESTIGACIONES CIENTÍFICAS, priority 2018, dated 2024).

The structures appear in SMILES notation.

The IC50 is the point on the concentration scale where inhibition reaches its midpoint. Broadly, the Papp is a coefficient for how fast a substance crosses the barrier. Read a high Papp as ready permeation.

Sequence of LRRK2 G2019S (Q5S007 whole entry G2019S): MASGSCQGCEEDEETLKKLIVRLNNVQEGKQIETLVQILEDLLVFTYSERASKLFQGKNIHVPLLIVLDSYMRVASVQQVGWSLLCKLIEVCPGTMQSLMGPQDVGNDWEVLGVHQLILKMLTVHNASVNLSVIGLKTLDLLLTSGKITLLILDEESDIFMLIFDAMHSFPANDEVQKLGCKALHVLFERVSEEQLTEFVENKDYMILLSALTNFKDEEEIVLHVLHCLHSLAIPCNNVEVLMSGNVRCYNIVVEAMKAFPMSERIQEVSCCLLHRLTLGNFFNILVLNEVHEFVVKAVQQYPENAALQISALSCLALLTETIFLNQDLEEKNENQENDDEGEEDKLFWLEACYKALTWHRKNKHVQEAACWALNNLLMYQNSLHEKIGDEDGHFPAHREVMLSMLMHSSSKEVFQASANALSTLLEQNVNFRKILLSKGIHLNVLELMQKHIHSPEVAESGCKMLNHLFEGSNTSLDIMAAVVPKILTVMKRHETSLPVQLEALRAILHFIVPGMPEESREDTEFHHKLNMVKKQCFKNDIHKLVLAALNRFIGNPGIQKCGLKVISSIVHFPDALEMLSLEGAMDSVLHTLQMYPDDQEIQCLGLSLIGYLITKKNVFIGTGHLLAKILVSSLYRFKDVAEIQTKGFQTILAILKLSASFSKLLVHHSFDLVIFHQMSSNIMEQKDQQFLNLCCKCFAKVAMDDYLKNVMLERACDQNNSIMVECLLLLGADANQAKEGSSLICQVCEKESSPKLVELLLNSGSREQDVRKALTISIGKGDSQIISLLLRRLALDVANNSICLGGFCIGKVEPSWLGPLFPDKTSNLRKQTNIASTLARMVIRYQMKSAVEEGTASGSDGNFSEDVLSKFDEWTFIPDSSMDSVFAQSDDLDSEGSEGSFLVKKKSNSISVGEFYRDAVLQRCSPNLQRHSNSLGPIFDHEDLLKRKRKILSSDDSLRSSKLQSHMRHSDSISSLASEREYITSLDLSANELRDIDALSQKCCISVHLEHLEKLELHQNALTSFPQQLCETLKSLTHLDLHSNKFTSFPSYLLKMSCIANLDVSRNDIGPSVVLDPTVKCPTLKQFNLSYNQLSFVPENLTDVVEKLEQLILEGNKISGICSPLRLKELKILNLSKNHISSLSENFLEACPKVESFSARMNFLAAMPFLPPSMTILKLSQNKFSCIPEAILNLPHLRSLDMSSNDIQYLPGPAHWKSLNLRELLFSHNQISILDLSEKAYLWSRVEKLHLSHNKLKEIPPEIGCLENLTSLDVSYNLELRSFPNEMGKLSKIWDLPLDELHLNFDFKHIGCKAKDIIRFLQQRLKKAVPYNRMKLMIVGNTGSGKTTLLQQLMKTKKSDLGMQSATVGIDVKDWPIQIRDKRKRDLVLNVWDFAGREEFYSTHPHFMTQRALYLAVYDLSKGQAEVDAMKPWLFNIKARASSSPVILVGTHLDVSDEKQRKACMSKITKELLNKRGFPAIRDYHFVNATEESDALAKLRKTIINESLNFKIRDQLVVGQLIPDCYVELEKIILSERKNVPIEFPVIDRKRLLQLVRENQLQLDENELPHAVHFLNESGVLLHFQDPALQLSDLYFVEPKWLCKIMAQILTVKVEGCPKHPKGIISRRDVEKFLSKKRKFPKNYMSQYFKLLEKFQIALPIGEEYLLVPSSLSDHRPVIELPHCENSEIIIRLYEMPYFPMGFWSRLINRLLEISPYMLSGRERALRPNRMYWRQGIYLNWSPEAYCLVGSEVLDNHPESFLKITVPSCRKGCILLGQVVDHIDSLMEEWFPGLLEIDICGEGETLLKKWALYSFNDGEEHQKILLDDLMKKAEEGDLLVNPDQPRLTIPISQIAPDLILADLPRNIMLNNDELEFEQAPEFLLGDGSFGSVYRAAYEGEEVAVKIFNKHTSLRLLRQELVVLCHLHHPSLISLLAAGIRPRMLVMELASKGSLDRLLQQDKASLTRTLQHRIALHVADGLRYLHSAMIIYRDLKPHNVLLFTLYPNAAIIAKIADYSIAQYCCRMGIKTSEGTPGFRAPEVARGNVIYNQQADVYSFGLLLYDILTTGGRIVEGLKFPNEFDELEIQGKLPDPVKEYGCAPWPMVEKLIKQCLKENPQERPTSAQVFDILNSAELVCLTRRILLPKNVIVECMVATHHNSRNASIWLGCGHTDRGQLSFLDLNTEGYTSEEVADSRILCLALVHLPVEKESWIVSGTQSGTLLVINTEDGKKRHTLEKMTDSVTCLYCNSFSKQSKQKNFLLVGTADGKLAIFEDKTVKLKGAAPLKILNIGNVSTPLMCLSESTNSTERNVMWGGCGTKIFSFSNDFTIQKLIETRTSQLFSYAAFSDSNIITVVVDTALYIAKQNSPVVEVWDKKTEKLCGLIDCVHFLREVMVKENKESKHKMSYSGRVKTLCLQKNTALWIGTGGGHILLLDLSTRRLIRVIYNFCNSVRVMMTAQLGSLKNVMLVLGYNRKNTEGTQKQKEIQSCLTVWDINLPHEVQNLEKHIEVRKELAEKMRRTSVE
Sequence of LRRK2 (Q5S007 whole entry): as the sequence (Q5S007 whole entry G2019S) above, with S2019G counted along it

In turn, `O=C(Nc1nc2ccccc2s1)c1ccc(N2CCOCC2)cc1` [Compound 1, N-(benzothiazole-2-yl)-4-morpholinobenzamide] came in with an IC50 in data set [1] of 360 nM. Moreover, in data set [2], the “Blood-brain barrier penetration by passive diffusion” value (“Blood-brain barrier penetration” for short) is listed as “capable of penetrating the blood-brain barrier by passive diffusion” and the “Pe (10−6 cm s−1)” value is given as 13.4 ± 2.4 10−6 cm s−1. Besides, the “Neuroprotection against okadaic acid damage / tau hyperphosphorylation” value in data set [3] is “prevents the damage caused by the okadaic acid”. The same compound returned an IC50 in data set [4] of 696 nM.
On to `COc1ccc2nc(NC(=O)c3ccc(N4CCOCC4)cc3)sc2c1` [Compound 2, N-(6-methoxybenzothiazole-2-yl)-4-morpholinobenzamide], for which the half-inhibitory concentration (IC50) was 108 nM in data set [1] and 368 nM in data set [4]. For the same compound, in data set [3], the “Neuroprotection against okadaic acid damage / tau hyperphosphorylation” value is “prevents the damage caused by the okadaic acid”.
The matching figures for `O=C(Nc1nc2ccc(C(F)(F)F)cc2s1)c1ccc(N2CCOCC2)cc1` [Compound 3, N-(6-trifluoromethylbenzothiazole-2-yl)-4-morpholinobenzamide]: 293 nM, 1060 nM and “prevents the damage caused by the okadaic acid”.
Consider `Cc1ccc2nc(NC(=O)c3ccc(N4CCOCC4)cc3)sc2c1` [Compound 4, N-(6-methylbenzothiazole-2-yl)-4-morpholinobenzamide], for which the IC50 in data set [1] is 332 nM. Further, in data set [2], the “Blood-brain barrier penetration” value was “capable of penetrating the blood-brain barrier by passive diffusion” and the “Pe (10−6 cm s−1)” value was 19.0 ± 2.6 10−6 cm s−1. Further, the “Neuroprotection against okadaic acid damage / tau hyperphosphorylation” value in data set [3] was “prevents the damage caused by the okadaic acid”. Moreover, the IC50 in data set [4] was 523 nM.
With `O=C(Nc1nc2ccc(Cl)cc2s1)c1ccc(N2CCOCC2)cc1` [Compound 5, N-(6-chlorobenzothiazole-2-yl)-4-morpholinobenzamide], in data set [2], the “Prediction of penetration in the central nervous system (CNS)” value is “CNS+/−” and the Papp at 2.5 h is 3.42 ± 1.26 ×10⁻⁶ cm/s. In data set [3], the “Neuroprotection against okadaic acid damage / tau hyperphosphorylation” value is on record as “prevents the damage caused by the okadaic acid”. Further, in data set [4], the 50% inhibitory concentration (IC50) is 777 nM.
Regarding `O=C(Nc1nc2ccc(F)cc2s1)c1ccc(N2CCOCC2)cc1` [Compound 6, N-(6-fluorobenzothiazole-2-yl)-4-morpholinobenzamide], the IC50 in data set [1] was determined as 426 nM. Besides, in data set [2], the “Blood-brain barrier penetration” value is “capable of penetrating the blood-brain barrier by passive diffusion” and the “Pe (10−6 cm s−1)” value is on record as 5.1 ± 0.1 10−6 cm s−1. Also, the “Neuroprotection against okadaic acid damage / tau hyperphosphorylation” value in data set [3] was “prevents the damage caused by the okadaic acid”. In data set [4], this compound yielded an IC50 of 190 nM.
Take `CCOc1ccc2nc(NC(=O)c3ccc(N4CCOCC4)cc3)sc2c1` [Compound 7, N-(6-ethoxybenzothiazole-2-yl)-4-morpholinobenzamide]: the IC50 in data set [1] was 158 nM; in data set [4] it was 308 nM. For the same compound, the “Neuroprotection against okadaic acid damage / tau hyperphosphorylation” value in data set [3] is “prevents the damage caused by the okadaic acid”.
The matching figures for `O=C(Nc1nc2ccc(Br)cc2s1)c1ccc(N2CCOCC2)cc1` [Compound 8, N-(6-bromobenzothiazole-2-yl)-4-morpholinobenzamide]: 1380 nM, 474 nM and “prevents the damage caused by the okadaic acid”.
In the case of `CCCOc1ccc2nc(NC(=O)c3ccc(N4CCOCC4)cc3)sc2c1` [Compound 9, N-(6-propoxybenzothiazole-2-yl)-4-morpholinobenzamide], the half-inhibitory concentration (IC50) is 1190 nM in data set [1] and 4000 nM in data set [4]. The compound further displayed an apparent permeability (Papp) at 2.5 h in data set [2] of 4.28 ± 3.45 ×10⁻⁶ cm/s. The “Neuroprotection against okadaic acid damage / tau hyperphosphorylation” value in data set [3] is reported as “prevents the damage caused by the okadaic acid”.
With `CC(C)c1ccc2nc(NC(=O)c3ccc(N4CCOCC4)cc3)sc2c1` [Compound 10, N-(6-isopropylbenzothiazole-2-yl)-4-morpholinobenzamide], the IC50 stood at 1170 nM in data set [1] and 1950 nM in data set [4]. Further, in data set [2], the Papp at 2.5 h was determined as 4.27 ± 2.7 ×10⁻⁶ cm/s. The “Neuroprotection against okadaic acid damage / tau hyperphosphorylation” value in data set [3] is given as “prevents the damage caused by the okadaic acid”.
For the compound `CN1C(C(=O)Nc2ccccn2)=C(O)c2ccccc2S1(=O)=O` [Piroxicam, reference compound], the “Pe (10−6 cm s−1)” value in data set [2] is 0.6 ± 0.2 10−6 cm s−1.
Take `CN(C)CCCN1c2ccccc2Sc2ccccc21` [Promazine, reference compound]: in data set [2], the “Pe (10−6 cm s−1)” value was 9.8 ± 0.5 10−6 cm s−1.
